Data published in PubChem BioAssay (NCI).
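Assay format: 96-well plates, 48-hour exposure. The concentration for 50% growth inhibition is given as GI50. TGI marks complete inhibition of growth.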

Legend:
Assay in all cases: NCI-60 cell line screen, 48 h
MOLT-4 leukemia = test system: MOLT-4 leukemia
HS 578T breast = test system: HS 578T breast
RXF 393 renal = test system: RXF 393 renal
SK-MEL-2 melanoma = test system: SK-MEL-2 melanoma
K-562 leukemia = test system: K-562 leukemia
786-0 renal = test system: 786-0 renal
NCI/ADR-RES ovarian = test system: NCI/ADR-RES ovarian
HCT-15 colon = test system: HCT-15 colon
LOX IMVI melanoma = test system: LOX IMVI melanoma
UACC-257 melanoma = test system: UACC-257 melanoma

Compound	GI50 (MOLT-4 leukemia) [µM]	TGI (MOLT-4 leukemia) [µM]	GI50 (HS 578T breast) [µM]	TGI (HS 578T breast) [µM]	GI50 (RXF 393 renal) [µM]	TGI (RXF 393 renal) [µM]	GI50 (SK-MEL-2 melanoma) [µM]	TGI (SK-MEL-2 melanoma) [µM]	GI50 (K-562 leukemia) [µM]	TGI (K-562 leukemia) [µM]	GI50 (786-0 renal) [µM]	TGI (786-0 renal) [µM]	GI50 (NCI/ADR-RES ovarian) [µM]	TGI (NCI/ADR-RES ovarian) [µM]	GI50 (HCT-15 colon) [µM]	TGI (HCT-15 colon) [µM]	GI50 (LOX IMVI melanoma) [µM]	TGI (LOX IMVI melanoma) [µM]	GI50 (UACC-257 melanoma) [µM]	TGI (UACC-257 melanoma) [µM]
COc1cc(C2CC(c3ccccc3)=NN2C(C)=O)cc(OC)c1OC (centres undefined)	5.5	> 100	2.57	34.6	4.14	> 48.2	4.02	> 100	2.77	> 100	5.93	> 100	2.8	> 26.1	2.48	> 100	6.38	> 100	> 100	> 100
O=C1CCC(N2Cc3c(C#CCCCNC(=O)c4cc5c(o4)C(=O)c4ccccc4C5=O)cccc3C2=O)C(=O)N1 (centres undefined)	3.08	12.5	2.39	5.64	4.55	18.2	2.54	6.47	3.11	16.6	15.3	32	> 100	> 100	16.4	45.4	2.14	5.49	2	4.48
Cc1cc2cc3cc(C)c(N)cc3[n+](C)c2cc1N	2.58	13.6	1.12	8.72	0.584	4.33	3.31	8.1	1.64	9.47	2.6	11.5	5.56	23.4	2.65	11.7	1.35	3.34	1.05	7.5
O=C(NCCNc1nccc(-c2c(-c3ccc(F)cc3)nc3sccn23)n1)c1ccccc1	12.2	54.8	20.4	> 100	6.19	28.3	8.75	39.3	7.72	> 100	15.3	> 100	7.13	76.4	3.81	39.3	4.3	31.4	14.3	41.1
N=c1n(Cc2ccccc2)c(N)cc(=O)n1Cc1ccccc1	1.24	5.38	1.04	–	1.87	5.71	2.79	7.18	3.82	> 100	2.97	9.76	2.33	5.71	3.49	12.3	3.14	10.9	3.1	11
Cc1c(-c2nnc(-c3ccc(F)cc3)o2)nnn1-c1ccnc2c(C(F)(F)F)cccc12	> 100	> 100	15.5	53.9	21.6	70.7	> 100	> 100	19.8	> 100	40.6	> 100	40.3	> 100	> 100	> 100	44.5	> 100	> 100	> 100
